System: not given
Experiment: not given
Settings: not given

melting point [°C]	SMILES
147	Cn1c(=O)n(Cc2ccccc2)c(=O)c2cc(C(=O)OC/C=C/c3ccncc3)ccc21
184	Cn1c(=O)n(Cc2ccccc2)c(=O)c2cc(C(=O)OC/C=C/c3cccnc3)ccc21
130	COc1ccc(CNC(=O)c2ccc3c(c2)c(=O)n(Cc2ccc(C(=O)OCCN(C)C)c(OC)c2)c(=O)n3C)cc1
305	COc1ccc(CNC(=O)c2ccc3c(c2)c(=O)n(Cc2ccc(-c4noc(=O)[nH]4)cc2)c(=O)n3C)cc1
166 to 168	Cn1c(=O)n(Cc2ccc(F)cc2)c(=O)c2cc(C(=O)NCc3cccnc3)ccc21
173 to 175	Cn1c(=O)n(Cc2ccc(Cl)cc2)c(=O)c2cc(C(=O)NCc3cccnc3)ccc21
178 to 180	COc1cccc(CNC(=O)c2ccc3c(c2)c(=O)n(Cc2ccc(Cl)cc2)c(=O)n3C)c1
174 to 175	COc1cc(CNC(=O)c2ccc3c(c2)c(=O)n(Cc2ccc(F)cc2)c(=O)n3C)ccn1
148 to 149	COc1ccc(CNC(=O)c2ccc3c(c2)c(=O)n(Cc2ccc(C4(C(=O)OC(C)(C)C)CC4)cc2)c(=O)n3C)cc1
179 to 181	COc1ccc(CNC(=O)c2ccc3c(c2)c(=O)n(Cc2ccc(C4(C(=O)O)CC4)cc2)c(=O)n3C)cc1
117 to 118	Cn1c(=O)n(Cc2ccccc2)c(=O)c2cc(SCc3ccccc3)ccc21
182 to 183	Cn1c(=O)n(Cc2ccccc2)c(=O)c2cc([S+]([O-])Cc3ccccc3)ccc21 (stereo not shown)
173 to 175	Cn1c(=O)n(Cc2ccccc2)c(=O)c2cc(S(=O)(=O)Cc3ccccc3)ccc21
245.2	O=C(NCc1ccc2c(c1)OCO2)c1ccc2[nH]c(=O)n(Cc3ccc4c(c3)OCO4)c(=O)c2c1 [Example 28, 3-(Benzo[1,3]dioxol-5-ylmethyl)-2,4-dioxo-1,2,3,4-tetrahydroquinazoline-6-carboxylic acid (benzo[1,3]dioxol-5-ylmethyl)amide]

Biological target: T1, human collagenase-3 catalytic domain enzyme (MMP13) (Homo sapiens, UniProt P45452)
T1 construct: human collagenase-3 catalytic domain enzyme
Experiment: MMP13CD Thiopeptolide Assay
Type: biochemical
Settings: not given
Description: MMP13CD Thiopeptolide Assay: Proteolysis of the thiopeptolide substrate Ac-Pro-Leu-Gly-thioester-Leu-Leu-Gly-OEt is used as the primary screen to determine IC50 values for MMP13 inhibitors. A 100 μl reaction contains 50 mM HEPES, 10 mM CaCl2, pH 7.0 (RT), 1 mM 5,5′-dithiobis(2-nitrobenzoic acid) (DTNB), 100 μM substrate, inhibitor in 2.0% DMSO and 2.5 nM human collagenase-3 catalytic domain enzyme. Inhibitors are screened from 100 μM to 0.5 nM. […] Percentage of control velocity in inhibited treatments is plotted against inhibitor concentration to calculate IC50 values.

IC50 [nM]	SMILES
9	O=C(NCc1ccc2c(c1)OCO2)c1ccc2[nH]c(=O)n(Cc3ccc4c(c3)OCO4)c(=O)c2c1 [Example 28, 3-(Benzo[1,3]dioxol-5-ylmethyl)-2,4-dioxo-1,2,3,4-tetrahydroquinazoline-6-carboxylic acid (benzo[1,3]dioxol-5-ylmethyl)amide]
2.5	O=C(OCc1ccccc1)c1cnc2[nH]c(=O)n(Cc3ccccc3)c(=O)c2c1 [Example 46, Benzyl 3-benzyl-2,4-dioxo-1,2,3,4-tetrahydroprido[2,3-d]pyrimidine-6-carboxylate]
1210	O=C(OCc1ccncc1)c1cnc2[nH]c(=O)n(Cc3ccccc3)c(=O)c2c1 [Example 47, 4-Pyridylmethyl 3-benzyl-2,4-dioxo-1,2,3,4-tetrahydropyrido[2,3-α]pyrimidine-6-carboxylate]
16	O=C(NCc1ccc2c(c1)OCO2)c1ccc2[nH]c(=S)n(Cc3ccccc3)c(=O)c2c1 [Example 48, 3-Benzyl-4-oxo-2-thioxo-1,2,3,4-tetrahydroquinazoline-6-carboxylic acid (benzo[1,3]dioxol-5-ylmethyl)amide]
7	Cn1c(=O)n(Cc2ccc(C(=O)O)cc2)c(=O)c2cc(C(=O)NCc3ccc(O)cc3)ccc21 [Example 49, 4-[6-(4-Hydroxy-benzylcarbamoyl)-1-methyl-2,4-dioxo-1,4-dihydro-2H-quinazolin-3-ylmethyl]-benzoic acid]
96	COc1ccc(CNC(=O)c2ccc3c(c2)c(=O)n(Cc2ccc(C(=O)N(C)C)cc2)c(=O)n3C)cc1 [Example 50, 3-(4-Dimethylcarbamoyl-benzyl)-1-methyl-2,4-dioxo-1,2,3,4-tetrahydro quinazoline-6-carboxylic acid 4-methoxy-benzylamide]
62	CNC(=O)c1ccc(Cn2c(=O)c3cc(C(=O)NCc4ccc(OC)cc4)ccc3n(C)c2=O)cc1 [Example 51, 1-Methyl-3-(4-methylcarbamoyl-benzyl)-2,4-dioxo-1,2,3,4-tetrahydro-quinazoline-6-carboxylic acid 4-methoxy-benzylamide]
14	C=CCn1c(=O)c2cc(C(=O)NCc3ccc(OC)cc3)ccc2n(C)c1=O [Example 52, 3-Allyl-1-methyl-2,4-dioxo-1,2,3,4-tethydro-quinazoline-6-carboxylic acid 4-methoxy-benzylamiide]

SMILES	IC50 [nM]
O=C(OCc1ccncc1)c1ccc2[nH]c(=O)n(Cc3ccc4c(c3)OCO4)c(=O)c2c1 [Example 45, 4-Pyridylmethyl3-(benzo[1,3]dioxol-5-ylmethyl)-2,4-dioxo-1,2,3,4-tetrahydroquinazoline6-carboxylate]	7

System: MMP-1, MMP-2, MMP-3, MMP-9 and MMP-13
Experiment: not given
Settings: prior art, non-selective inhibitors; cited from earlier work

SMILES	inhibition of several MMPs (in words)
CC1(C)SCCN(S(=O)(=O)c2ccc(Oc3ccncc3)cc2)[C@H]1C(=O)NO [AG-3340]	inhibit both MMP-1, MMP-2, MMP-3, MMP-9 and MMP-13
COc1ccc(S(=O)(=O)N(Cc2cccnc2)[C@@H](C(=O)NO)C(C)C)cc1 [CGS-27.023A]	inhibit both MMP-1, MMP-2, MMP-3, MMP-9 and MMP-13

Reference: patent US20020193377A1, “Quinazolines as MMP-13 inhibitors” (priority 2001, published 2002)
